The source of these data is patent US12384776B2, “Compounds and uses thereof” (Foghorn Therapeutics Inc., priority 2019, dated 2025).

Assay [1] concerns the target BRD9 bromodomain (Homo sapiens (Human), UniProt Q9H8M2). Description: BRD9 bromodomain TR-FRET competition binding assay. The procedure: Procedure: His-Flag-BRD9 (P133-K239; Swiss Prot Q9H8M2; SEQ ID NO:1 mgsshhhhhhenlyfq/gdykddddkgslevlfqg/[…] […]) was cloned, expressed, purified, and then treated with TEV protease. Cleaved His tag was removed by purification. The binding of a biotinylated small molecule ligand of BRD9 was assessed via the LANCE® TR-FRET platform (PerkinElmer), and the compounds were assayed for inhibitory activity against this interaction.
Results: A mixture of biotinylated-ligand and SureLight™ Allophycocyanin-Streptavidin (APC-SA, PerkinElmer AD0201) in 50 mM HEPES (pH 7.4), 50 mM NaCl, 1 mM TCEP (pH 7), 0.01% (v/v) Tween-20, 0.01% (w/v) bovine serum albumin was added to a white 384-well PerkinElmer Proxiplate Plus plate. DMSO or 3-fold serially diluted compounds were then added to the Proxiplate followed by addition of Flag-BRD9. After a 10-minute incubation at room temperature, Eu—W1024 anti-FLAG (PerkinElmer, AD0273) was added. The final reaction mixture that contained 3.75 nM biotinylated ligand, 3 nM Flag-BRD9, 7.5 nM SureLight™ Allophycocyanin-Streptavidin, and 0.2 nM Eu—W1024 anti-FLAG was incubated at room temperature for 90 minutes.
The plates were then read on a PerkinElmer Envision plate reader to determine the ratio of emission at 665 nm over 615 nm. […]
For orientation: TR-FRET usually uses a lanthanide donor and a delayed reading to cut background.

The target in assay [2] is Nanoluciferase-BRD9 fusion protein (3×FLAG-NLuc-BRD9) in SYO-1 cells (Homo sapiens (Human), UniProt Q9H8M2). Description: SYO1 BRD9 NanoLuc degradation assay. In kind it is cell-based. The following applies: SYO-1 cells, 6 hours, Table 6A. Summed up:
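Degradation read as loss of NLuc signal after 6 h compound exposure (1 μM top final, 3-fold steps, 10 points, duplicates) in SYO-1 cells stably carrying 3×FLAG-NLuc-BRD9. Signal normalised between DMSO-treated cells and cells given 1 μM of a known BRD9 degrader.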

Chain of BRD9 bromodomain (Q9H8M2 133-239): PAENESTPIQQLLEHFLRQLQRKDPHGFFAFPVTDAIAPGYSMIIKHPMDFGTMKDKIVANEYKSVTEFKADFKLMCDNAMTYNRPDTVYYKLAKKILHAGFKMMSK
Chain of Nanoluciferase-BRD9 fusion protein (3×FLAG-NLuc-BRD9) in SYO-1 cells (Q9H8M2 whole entry, the tested form may be a part): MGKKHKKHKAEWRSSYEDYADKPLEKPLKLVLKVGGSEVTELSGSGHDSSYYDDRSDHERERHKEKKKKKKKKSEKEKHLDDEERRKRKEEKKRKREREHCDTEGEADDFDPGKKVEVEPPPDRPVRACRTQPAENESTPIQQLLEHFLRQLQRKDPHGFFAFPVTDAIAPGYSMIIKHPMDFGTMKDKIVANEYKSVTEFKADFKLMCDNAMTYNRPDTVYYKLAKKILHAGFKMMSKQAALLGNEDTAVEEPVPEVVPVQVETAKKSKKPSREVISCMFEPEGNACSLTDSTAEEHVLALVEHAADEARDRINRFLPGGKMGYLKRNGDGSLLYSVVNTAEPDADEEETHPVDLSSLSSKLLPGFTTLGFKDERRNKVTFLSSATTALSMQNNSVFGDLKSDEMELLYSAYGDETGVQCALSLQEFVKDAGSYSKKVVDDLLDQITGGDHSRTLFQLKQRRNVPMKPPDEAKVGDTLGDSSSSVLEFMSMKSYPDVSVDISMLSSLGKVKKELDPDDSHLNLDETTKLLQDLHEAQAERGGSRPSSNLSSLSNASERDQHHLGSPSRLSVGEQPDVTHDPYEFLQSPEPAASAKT

As usually defined, the IC50 is the concentration needed to halve the response being measured. Low values mean greater potency in that assay, high ones weaker potency in that assay. As for `COc1cc(-c2cn(C)c(=O)c3c2CCN(C(=O)NCCCCCCCC(=O)N[C@H](C(=O)N2C[C@H](O)C[C@H]2C(=O)NCc2ccc(-c4scnc4C)cc2)C(C)(C)C)C3)cc(OC)c1CN(C)C` [Compound D37, (2S,4R)-1-[(2S)-2-[8-(5-[4-[(dimethylamino)methyl]-3,5-dimethoxyphenyl]-7-methyl-8-oxo-3,4-dihydro-1H-2,7-naphthyridine-2-carbonylamino)octanamido]-3,3-dimethylbutanoyl]-4-hydroxy-N-[[4-(4-methyl-1,3-thiazol-5-yl)phenyl]methyl]pyrrolidine-2-carboxamide formic acid], the IC50 in assay [1] was less than 0.01 µM; in assay [2] it was more than 0.01 µM.

`COc1cc(-c2cn(C)c(=O)c3c2CCN(C(=O)CCCCCOc2cccc4c2C(=O)N(C2CCC(=O)NC2=O)C4=O)C3)cc(OC)c1CN(C)C` (centres unmarked) [Compound D20, ([4-[7-(6-[[2-(2,6-dioxopiperidin-3-yl)-1,3-dioxo-2,3-dihydro-1H-isoindol-4-yl]oxy]hexanoyl)-2-methyl-1-oxo-1,2,5,6,7,8-hexahydro-2,7-naphthyridin-4-yl]-2,6-dimethoxyphenyl]methyl)(methyl)aminyl]: the IC50 in assay [1] and in assay [2] was more than 1 µM each time.

For `COc1cc(-c2cn(C)c(=O)c3c2CN(C(=O)N(C)C)CC3)cc(OC)c1CN(C)CCOCCN1CCN(c2ccc3c(c2)C(=O)N(C2CCC(=O)NC2=O)C3=O)CC1` (centres unmarked) [Compound D33, 8-(4-(((2-(2-(4-(2-(2,6-dioxopiperidin-3-yl)-1,3-dioxoisoindolin-5-yl)piperazin-1-yl)ethoxy)ethyl)(methyl)amino)methyl)-3,5-dimethoxyphenyl)-N,N,6-trimethyl-5-oxo-3,4,5,6-tetrahydro-2,6-naphthyridine-2 (1H)-carboxamide formic acid], the IC50 in assay [1] was more than 0.01 µM; in assay [2] it was more than 1 µM.

With `CNC(=O)N1CCc2c(c(-c3cc(OC)c(CN(C)CC(=O)NCCOCCOc4cccc5c4C(=O)N(C4CCC(=O)NC4=O)C5=O)c(OC)c3)cn(C)c2=O)C1` (centres unmarked) [Compound D24, 8-(4-(((2-((2-(2-((2-(2,6-dioxopiperidin-3-yl)-1,3-dioxoisoindolin-4-yl)oxy)ethoxy)ethyl)amino)-2-oxoethyl)(methyl)amino)methyl)-3,5-dimethoxyphenyl)-N,6-dimethyl-5-oxo-3,4,5,6-tetrahydro-2,6-naphthyridine-2 (1H)-carboxamide], the IC50 in assay [1] was more than 0.1 µM; in assay [2], more than 1 µM.

For `COc1cc(-c2cn(C)c(=O)c3c2CCN(C(=O)NCCOCCNc2ccc4c(c2)C(=O)N(C2CCC(=O)NC2=O)C4=O)C3)c(OC)cc1CN(C)C` (centres unmarked) [Compound D32, 5-[4-[(dimethylamino)methyl]-2,5-dimethoxyphenyl]-N-[2-(2-[[2-(2,6-dioxopiperidin-3-yl)-1,3-dioxoisoindol-5-yl]amino]ethoxy)ethyl]-7-methyl-8-oxo-3,4-dihydro-1H-2,7-naphthyridine-2-carboxamide formic acid], the IC50 in assay [1] and in assay [2] was more than 0.1 µM in each case.

As to `COc1cc(-c2cn(C)c(=O)c3c2CN(C(=O)NCCOCCOCCNc2cccc4c2C(=O)N(C2CCC(=O)NC2=O)C4=O)CC3)cc(OC)c1CN(C)C` (centres unmarked) [Compound D23, 8-[4-[(dimethylamino)methyl]-3,5-dimethoxyphenyl]-N-[2-[2-(2-[[2-(2,6-dioxopiperidin-3-yl)-1,3-dioxoisoindol-4-yl]amino]ethoxy)ethoxy]ethyl]-6-methyl-5-oxo-3,4-dihydro-1H-2,6-naphthyridine-2-carboxamide formic acid], the IC50 in assay [1] was more than 0.1 µM; in assay [2] it was more than 1 µM.

For the molecule `COc1cc(-c2cn(C)c(=O)c3c2CCN(C(=O)NCCCCCOc2ccc4c(c2)C(=O)N(C2CCC(=O)NC2=O)C4=O)C3)cc(OC)c1CN(C)C` (centres unmarked) [Compound D22, formic acid], the IC50 in assay [1] and in assay [2] was less than 0.01 µM throughout.

On to `COc1cc(-c2cn(C)c(=O)c3c2CCN(C(=O)NCCCCCCCCNc2cccc4c2CN(C2CCC(=O)NC2=O)C4=O)C3)cc(OC)c1CN(C)C` (centres unmarked) [Compound D29, 5-(4-((dimethylamino)methyl)-3,5-dimethoxyphenyl)-N-(8-((2-(2,6-dioxopiperidin-3-yl)-1-oxoisoindolin-4-yl)amino)octyl)-7-methyl-8-oxo-3,4,7,8-tetrahydro-2,7-naphthyridine-2 (1H)-carboxamide formic acid], for which the IC50 in assay [1] and in assay [2] was less than 0.01 µM each time.

`CNC(=O)N1CCc2c(-c3cc(OC)c(CN4CCC(CCN5CCN(c6ccc7c(c6)C(=O)N(C6CCC(=O)NC6=O)C7=O)CC5)CC4)c(OC)c3)cn(C)c(=O)c2C1` (centres unmarked) [Compound D28, 5-(4-[[4-(2-[4-[2-(2,6-dioxopiperidin-3-yl)-1,3-dioxoisoindol-5-yl]piperazin-1-yl]ethyl)piperidin-1-yl]methyl]-3,5-dimethoxyphenyl)-N,7-dimethyl-8-oxo-3,4-dihydro-1H-2,7-naphthyridine-2-carboxamide formic acid]: the IC50 in assay [1] and in assay [2] was less than 0.01 µM in each case.

With `COc1cc(-c2cn(C)c(=O)c3c2CCN(C(=O)CCCCCCCCNc2cccc4c2C(=O)N(C2CCC(=O)NC2=O)C4=O)C3)cc(OC)c1CN(C)C` (centres unmarked) [Compound D19, 4-[[9-(5-[4-[(dimethylamino)methyl]-3,5-dimethoxyphenyl]-7-methyl-8-oxo-1,2,3,4,7,8-hexahydro-2,7-naphthyridin-2-yl)-9-oxononyl]amino]-2-(2,6-dioxopiperidin-3-yl)-2,3-dihydro-1H-isoindole-1,3-dione], the IC50 in assay [1] and in assay [2] was more than 1 µM throughout.

Consider `COc1cc(-c2cn(C)c(=O)c3c2CCN(C(=O)NCCOCCNc2ccc4c(c2)C(=O)N(C2CCC(=O)NC2=O)C4=O)C3)cc(OC)c1CN(C)C` (centres unmarked) [Compound D21, 5-[4-[(dimethylamino)methyl]-3,5-dimethoxyphenyl]-N-[2-(2-[[2-(2,6-dioxopiperidin-3-yl)-1,3-dioxoisoindol-5-yl]amino]ethoxy)ethyl]-7-methyl-8-oxo-3,4-dihydro-1H-2,7-naphthyridine-2-carboxamide formic acid], for which the IC50 in assay [1] and in assay [2] was more than 0.01 µM each time.

As for `COc1cc(-c2cn(C)c(=O)c3c2CCN(C(=O)NCCCCCOc2cccc4c2C(=O)N(C2CCC(=O)NC2=O)C4=O)C3)cc(OC)c1CN(C)C` (centres unmarked) [Compound D18, 5-[4-[(dimethylamino)methyl]-3,5-dimethoxyphenyl]-N-(5-[[2-(2,6-dioxopiperidin-3-yl)-1,3-dioxoisoindol-4-yl]oxy]pentyl)-7-methyl-8-oxo-3,4-dihydro-1H-2,7-naphthyridine-2-carboxamide], the IC50 in assay [1] and in assay [2] was more than 0.01 µM throughout.

On to `CNC(=O)N1CCc2c(-c3cc(OC)c(CN4CCC5(CC4)CN(C(=O)CCCCOc4ccc6c(c4)C(=O)N(C4CCC(=O)NC4=O)C6=O)CCO5)c(OC)c3)cn(C)c(=O)c2C1` (centres unmarked) [Compound D31, 5-(4-((4-(5-((2-(2,6-dioxopiperidin-3-yl)-1,3-dioxoisoindolin-5-yl)oxy)pentanoyl)-1-oxa-4,9-diazaspiro[5.5]undecan-9-yl)methyl)-3,5-dimethoxyphenyl)-N,7-dimethyl-8-oxo-3,4,7,8-tetrahydro-2,7-naphthyridine-2 (1H)-carboxamide formic acid], for which the IC50 in assay [1] is less than 0.01 µM; in assay [2] it was more than 0.01 µM.

As to `COc1cc(-c2cn(C)c(=O)c3c2CCN(C(=O)NCCOCCNc2cccc4c2C(=O)N(C2CCC(=O)NC2=O)C4=O)C3)cc(OC)c1CN(C)C` (centres unmarked) [Compound D17, 5-[4-[(dimethylamino)methyl]-3,5-dimethoxyphenyl]-N-[2-(2-[[2-(2,6-dioxopiperidin-3-yl)-1,3-dioxoisoindol-4-yl]amino]ethoxy)ethyl]-7-methyl-8-oxo-3,4-dihydro-1H-2,7-naphthyridine-2-carboxamide formic acid], the IC50 in assay [1] and in assay [2] was more than 0.01 µM each time.

Regarding `COc1cc(-c2cn(C)c(=O)c3c2CCN(C(=O)NCCCCCCCCCC(=O)N[C@H](C(=O)N2C[C@H](O)C[C@H]2C(=O)NCc2ccc(-c4scnc4C)cc2)C(C)(C)C)C3)cc(OC)c1CN(C)C` [Compound D38, (2S,4R)-1-[(2S)-2-[10-(5-[4-[(dimethylamino)methyl]-3,5-dimethoxyphenyl]-7-methyl-8-oxo-3,4-dihydro-1H-2,7-naphthyridine-2-carbonylamino)decanamido]-3,3-dimethylbutanoyl]-4-hydroxy-N-[[4-(4-methyl-1,3-thiazol-5-yl)phenyl]methyl]pyrrolidine-2-carboxamide], the IC50 in assay [1] was less than 0.01 µM; in assay [2], more than 0.01 µM.

Take `COc1cc(-c2cn(C)c(=O)c3c2CCN(C(=O)NCCOCCNc2cccc4c2C(=O)N(C2CCC(=O)NC2=O)C4=O)C3)c(OC)cc1CN(C)C` (centres unmarked) [Compound D14, 5-[4-[(dimethylamino)methyl]-2,5-dimethoxyphenyl]-N-[2-(2-[[2-(2,6-dioxopiperidin-3-yl)-1,3-dioxoisoindol-4-yl]amino]ethoxy)ethyl]-7-methyl-8-oxo-3,4-dihydro-1H-2,7-naphthyridine-2-carboxamide formic acid]: the IC50 in assay [1] was more than 0.01 µM; in assay [2], more than 0.1 µM.
